Results taken from PubChem BioAssay (NCI).
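Grown in 96-well plates, cells were treated for 48 hours with each compound at five concentrations. Insufficient inhibition: endpoint recorded as highest concentration tested. GI50: concentration for 50% inhibition of growth. TGI denotes the concentration required for complete inhibition of growth.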

Tests used:
Experiment in all cases: inhibition of tumour cell growth, NCI panel, 48 h
[1] = test system: SNB-19 CNS
[2] = test system: HOP-62 NSCLC
[3] = test system: KM12 colon
[4] = test system: IGROV1 ovarian
[5] = test system: SW-620 colon
[6] = test system: MALME-3M melanoma
[7] = test system: SNB-75 CNS
[8] = test system: SK-MEL-2 melanoma
[9] = test system: COLO 205 colon
[10] = test system: BT-549 breast

Structure (SMILES) | TGI [1] [µM] | TGI [2] [µM] | TGI [3] [µM] | TGI [4] [µM] | TGI [5] [µM] | TGI [6] [µM] | TGI [7] [µM] | TGI [8] [µM] | TGI [9] [µM] | GI50 [1] [µM] | GI50 [2] [µM] | GI50 [3] [µM] | GI50 [4] [µM] | GI50 [5] [µM] | GI50 [6] [µM] | GI50 [7] [µM] | GI50 [8] [µM] | GI50 [9] [µM] | TGI [10] [µM]
O=C1C=CC(=C(c2ccc(O)cc2)c2ccc(O)cc2)C=C1 | 29.3 | 35.2 | 26.1 | 28 | 25.5 | 24.9 | 10.2 | 17.7 | 32.4 |  |  |  |  |  |  |  |  |  | 
CCOP(=O)(OCC)C(c1ccccc1)N(C(=O)NC(F)(F)F)c1cccc(F)c1 (configuration not stated) | > 100 | > 100 | > 100 | > 100 | > 100 | > 100 | > 100 |  | > 100 |  |  |  |  |  |  |  |  |  | 
Nc1ccccc1.[C-]#[O+].[C-]#[O+].[C-]#[O+].[C-]#[O+].[C-]#[O+].[Cr] | > 10 | > 10 | > 10 | > 10 | > 10 | > 10 | > 10 | > 10 | > 10 | 6.89 | 4.6 | 7.97 | 5.53 | > 10 | 4.72 | 4.05 | 3.91 | 3.52 | 
O=C1Nc2ccccc2Cn2c1cc1oc(-c3ccccc3)cc12 | 66.5 | 44.8 | > 100 | > 100 | > 100 | > 100 | 64.2 | > 100 | > 100 |  |  |  |  |  |  |  |  |  | 
O=C(CCCCCC(=O)N1CC(CCl)c2ccc([N+](=O)[O-])cc21)N1CC(CCl)c2ccc([N+](=O)[O-])cc21 (configuration not stated) | > 100 | > 100 | > 100 | > 100 | > 100 |  | > 100 | > 100 | > 100 |  |  |  |  |  |  |  |  |  | > 100
O=c1[nH]c(=O)n(C2CC(O)C(CO)O2)cc1NN=NCCCc1ccccc1 (configuration not stated) |  | > 100 | > 100 | > 100 |  | > 100 |  | > 100 | > 100 |  |  |  |  |  |  |  |  |  | 
CC(C)CCCC(C)[C@H]1CC[C@H]2[C@@H]3CC[C@H]4C[C@@H](CCC=C(c5cc(Cl)c(O)c(C(=O)OC(C)C)c5)c5cc(Cl)c(O)c(C(=O)OC(C)C)c5)CC[C@]4(C)[C@H]3CC[C@]12C (some centres not stated) | > 50 | > 50 | > 50 | > 50 | > 50 |  | > 50 | > 50 | > 50 |  |  |  |  |  |  |  |  |  | > 50
CN(C)c1ccc(C=C2C(=O)N(c3ccccc3)N(c3ccccc3)C2=O)cc1 | > 100 | > 100 | > 100 | > 100 | > 100 | > 100 | > 100 | > 100 | > 100 |  |  |  |  |  |  |  |  |  | 
O=C1C=C2SC3C[C@@]24CC1[N+]1=c2c4c(c(O)c4c2=C(C=N4)CC1)N3 | 9.66 | 32.6 | 4.74 | 6.48 | 5.44 | 3.3 | 12.2 | 3.35 | 3.57 |  |  |  |  |  |  |  |  |  | 
COc1ccc(-c2ccc(-c3ccc(C(=N)N)nc3)s2)cc1Cl |  |  | 3.32 |  | 3.37 | 3.32 | 2.8 |  |  |  |  | 1.81 |  | 1.79 | 1.78 | 1.43 |  |  | 
O=c1[nH]c2ccccc2c(O)c1/C=N/C(=S)NCc1ccccc1 | > 100 | > 100 | > 100 | > 100 | > 100 |  | > 100 | > 100 | > 100 |  |  |  |  |  |  |  |  |  | > 100
CCCCCCNC(=O)CCC(NC(=O)c1ccc(N(C)Cc2cnc3nc(N)nc(N)c3n2)cc1)C(=O)NCCCCCC (configuration not stated) | > 100 | > 100 | > 100 | 97.2 | > 100 |  | > 100 | > 100 | > 100 |  |  |  |  |  |  |  |  |  | > 100
CCCCCCCCCCCCc1ccc(S(=O)(=O)O)cc1.[Zn+2] | > 100 | > 100 | > 100 | 77.2 | > 100 | > 100 | > 100 |  | > 100 |  |  |  |  |  |  |  |  |  | 
CC1(C)C(CCO)CC1n1cc(I)c(=O)[nH]c1=O (configuration not stated) | > 100 | > 100 | > 100 |  | > 100 |  | > 100 | > 100 | > 100 |  |  |  |  |  |  |  |  |  | 
COc1cc(C2SC(C)C(=O)N2c2ccc(-c3csc(NS(=O)(=O)c4ccc(Cl)c(OC)c4)n3)cc2)ccc1O (configuration not stated) | > 100 | > 100 | 48.3 | > 100 | > 100 | 82.4 | 61 | > 100 | > 100 |  |  |  |  |  |  |  |  |  | 
O=[N+]([O-])c1ccc(N/N=C/CC(O)(C(F)(F)F)C(F)(F)F)c([N+](=O)[O-])c1 | > 10 | > 10 | > 10 | > 10 | > 10 | > 10 | > 10 | 6.64 | > 10 |  |  |  |  |  |  |  |  |  | 
COc1ccc2c(c1)C/C(=C\c1cccc3ccccc13)C2=O | > 100 |  | > 100 | > 100 | > 100 |  | > 100 |  |  |  |  |  |  |  |  |  |  |  | > 100
O=S(OC12CC3CC(CC(C3)C1)C2)c1cc(Cl)cc(Cl)c1OCc1ccccc1 (configuration not stated) | > 100 | > 100 | > 100 |  |  | > 100 | > 100 | > 100 |  |  |  |  |  |  |  |  |  |  | 
